Measured values: PubChem BioAssay AID248 (DTP/NCI, 2004)
Where “and” joins values, the source holds several entries; their conditions need not be identical. Equal entries are not always repeated. Toxic doses and inconclusive results are not listed. No stated cut-off is given here; in the data, active means T/C of 150% or more; inactive means T/C below 125%.

Test system: L1210 leukemia ip in BDF1 mice, survival T/C
Test: NCI In Vivo Anticancer Drug Screen. Data for tumor model L1210 Leukemia (intraperitoneal) in B6D2F1 (BDF1) mice
Details: endpoint: mean survival time, higher = longer survival
Summary of the method: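 Transplantable tumor model; survival measured in treated vs vehicle control mice. Value = treated/control.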

[1] = dose: 25.0 mg/kg/injection, schedule: Q04DX002 (ip), vehicle: saline
[2] = dose: 50.0 mg/kg/injection, schedule: Q04DX002 (ip), vehicle: saline
[3] = dose: 100.0 mg/kg/injection, schedule: Q04DX003 (ip), vehicle: Klucel (hydroxypropylcellulose) (HPC)
[4] = dose: 200.0 mg/kg/injection, schedule: Q04DX003 (ip), vehicle: Klucel (hydroxypropylcellulose) (HPC)
[5] = dose: 400.0 mg/kg/injection, schedule: Q04DX003 (ip), vehicle: Klucel (hydroxypropylcellulose) (HPC)
[6] = dose: 100.0 mg/kg/injection, schedule: Q01DX001 (ip), vehicle: saline with Tween-80
[7] = dose: 200.0 mg/kg/injection, schedule: Q01DX001 (ip), vehicle: saline with Tween-80
[8] = dose: 5.0 mg/kg/injection, schedule: Q01DX001 (ip), vehicle: carboxymethylcellulose (CMC)
[9] = dose: 20.0 mg/kg/injection, schedule: Q01DX001 (ip), vehicle: carboxymethylcellulose (CMC)
[10] = dose: 40.0 mg/kg/injection, schedule: Q01DX001 (ip), vehicle: carboxymethylcellulose (CMC)
[11] = dose: 100.0 mg/kg/injection, schedule: Q01DX009 (ip), vehicle: Klucel (hydroxypropylcellulose) (HPC)
[12] = dose: 200.0 mg/kg/injection, schedule: Q01DX009 (ip), vehicle: Klucel (hydroxypropylcellulose) (HPC)
[13] = dose: 400.0 mg/kg/injection, schedule: Q01DX009 (ip), vehicle: Klucel (hydroxypropylcellulose) (HPC)
[14] = dose: 50.0 mg/kg/injection, schedule: Q04DX003 (ip), vehicle: saline
[15] = dose: 100.0 mg/kg/injection, schedule: Q04DX003 (ip), vehicle: saline
[16] = dose: 200.0 mg/kg/injection, schedule: Q04DX003 (ip), vehicle: saline
[17] = dose: 100.0 mg/kg/injection, schedule: Q04DX002 (ip), vehicle: saline

Measured: T/C

OCc1cnc[nH]1
inactive: dose: 3.0 mg/kg/injection, schedule: Q04DX002 (ip), vehicle: saline 123 % of control | dose: 6.0 mg/kg/injection, schedule: Q04DX002 (ip), vehicle: saline 97 % of control | dose: 12.0 mg/kg/injection, schedule: Q04DX002 (ip), vehicle: saline 94 % of control | [1] 97 % of control and 121 % of control | [2] 105 % of control

O=[N+]([O-])c1ccccc1OCCBr
inactive: [3] 100 % of control | [4] 94 % of control

COc1ccc(COC(=O)Nc2cc(OC)ccc2OC)cc1
inactive: dose: 100.0 mg/kg/injection, schedule: Q04DX002 (ip), vehicle: Klucel (hydroxypropylcellulose) (HPC) 101 % of control | dose: 200.0 mg/kg/injection, schedule: Q04DX002 (ip), vehicle: Klucel (hydroxypropylcellulose) (HPC) 101 % of control | dose: 400.0 mg/kg/injection, schedule: Q04DX002 (ip), vehicle: Klucel (hydroxypropylcellulose) (HPC) 107 % of control

Clc1cc2c(cc1Cl)OB(c1ccccc1)O2
inactive: dose: 100.0 mg/kg/injection, schedule: Q04DX003 (ip), vehicle: alcohol 113 % of control | dose: 200.0 mg/kg/injection, schedule: Q04DX003 (ip), vehicle: alcohol 106 % of control

CCOCc1cn(CCCc2ccccc2)c(=O)[nH]c1=O
inactive: dose: 12.5 mg/kg/injection, schedule: Q04DX002 (ip), vehicle: Klucel (hydroxypropylcellulose) (HPC) 106 % of control | dose: 25.0 mg/kg/injection, schedule: Q04DX002 (ip), vehicle: Klucel (hydroxypropylcellulose) (HPC) 102 % of control | dose: 50.0 mg/kg/injection, schedule: Q04DX002 (ip), vehicle: Klucel (hydroxypropylcellulose) (HPC) 106 % of control

O=C(CCCC(=O)N1CCOCC1)N1CCOCC1
inactive: [3] 108 % of control | [4] 103 % of control | [5] 101 % of control

Nc1nc(N)c(-c2ccc(Cl)cc2)c(CN2C(=O)c3ccccc3C2=O)n1
inactive: dose: 75.0 mg/kg/injection, schedule: Q01DX001 (ip), vehicle: Klucel (hydroxypropylcellulose) (HPC) 97 % of control | dose: 150.0 mg/kg/injection, schedule: Q01DX001 (ip), vehicle: Klucel (hydroxypropylcellulose) (HPC) 92 % of control | dose: 300.0 mg/kg/injection, schedule: Q01DX001 (ip), vehicle: Klucel (hydroxypropylcellulose) (HPC) 92 % of control

CC(C)=CCC(CCN1CCOCC1)(C(N)=O)c1cccc2ccccc12 (configuration not stated)
inactive: dose: 6.25 mg/kg/injection, schedule: Q04DX003 (ip), vehicle: Klucel (hydroxypropylcellulose) (HPC) 104 % of control | dose: 12.5 mg/kg/injection, schedule: Q01DX009 (ip), vehicle: Klucel (hydroxypropylcellulose) (HPC) 96 % of control | dose: 12.5 mg/kg/injection, schedule: Q04DX003 (ip), vehicle: Klucel (hydroxypropylcellulose) (HPC) 94 % of control | dose: 25.0 mg/kg/injection, schedule: Q01DX009 (ip), vehicle: Klucel (hydroxypropylcellulose) (HPC) 104 % of control | dose: 25.0 mg/kg/injection, schedule: Q04DX003 (ip), vehicle: Klucel (hydroxypropylcellulose) (HPC) 98 % of control | dose: 50.0 mg/kg/injection, schedule: Q01DX009 (ip), vehicle: Klucel (hydroxypropylcellulose) (HPC) 90 % of control

CC12CCC3C(CCC4C(C)(C(=O)O)CCCC34C)(CC1=O)C2 (configuration not stated)
inactive: [6] 92 % of control | [7] 95 % of control

[N-]=[N+]=CC(=O)OCC(N)C(=O)O (configuration not stated)
inactive: dose: 100.0 mg/kg/injection, schedule: Q01DX009 (ip), vehicle: water 103 % of control | dose: 200.0 mg/kg/injection, schedule: Q01DX009 (ip), vehicle: water 105 % of control | dose: 400.0 mg/kg/injection, schedule: Q01DX009 (ip), vehicle: water 89 % of control

CCC[CH2][Pb]([Cl])([Cl])[CH2]CCC
inactive: [8] 95 % of control | [9] 108 % of control | [10] 97 % of control | dose: 100.0 mg/kg/injection, schedule: Q01DX001 (ip), vehicle: carboxymethylcellulose (CMC) 103 % of control

CCN(CC)C(=O)Oc1ccc(C(C)=O)cc1
inactive: dose: 100.0 mg/kg/injection, schedule: Q04DX002 (ip), vehicle: saline with Tween-80 103 % of control | dose: 200.0 mg/kg/injection, schedule: Q04DX002 (ip), vehicle: saline with Tween-80 100 % of control | dose: 400.0 mg/kg/injection, schedule: Q04DX002 (ip), vehicle: saline with Tween-80 114 % of control

c1ccc(-c2c(-c3ccccc3)c(-c3ccccc3)c(-c3ccc(Oc4ccc(-c5c(-c6ccccc6)c(-c6ccccc6)c(-c6ccccc6)c(-c6ccccc6)c5-c5ccccc5)cc4)cc3)c(-c3ccccc3)c2-c2ccccc2)cc1
inactive: [6] 92 % of control | [7] 92 % of control | dose: 400.0 mg/kg/injection, schedule: Q01DX001 (ip), vehicle: saline with Tween-80 100 % of control

Cc1ccccc1OB(Oc1ccccc1C)Oc1ccccc1C
inactive: dose: 100.0 mg/kg/injection, schedule: Q01DX001 (ip), vehicle: saline 101 % of control | dose: 200.0 mg/kg/injection, schedule: Q01DX001 (ip), vehicle: saline 109 % of control | dose: 400.0 mg/kg/injection, schedule: Q01DX001 (ip), vehicle: saline 95 % of control

O=C1OC(=O)c2c1ccc(Br)c2Br
inactive: [11] 102 % of control | [3] 101 % of control | [12] 96 % of control | [4] 98 % of control | [13] 89 % of control | [5] 93 % of control

CCN(CC)CCCC(C)Nc1ccnc2cc(C(F)(F)F)ccc12 (configuration not stated)
inactive: [8] 104 % of control | dose: 10.0 mg/kg/injection, schedule: Q01DX001 (ip), vehicle: carboxymethylcellulose (CMC) 106 % of control | [9] 90 % of control | [10] 104 % of control

CCC[N+](C)(C)CCCOC(=O)C1C2CC3OC(=O)C1C3C2 (configuration not stated)
inactive: dose: 12.5 mg/kg/injection, schedule: Q04DX003 (ip), vehicle: saline 106 % of control | dose: 25.0 mg/kg/injection, schedule: Q04DX003 (ip), vehicle: saline 100 % of control | [14] 100 % of control | [15] 97 % of control | [16] 91 % of control

CCN(CC)C(=O)C1CC=CCC1 (configuration not stated)
inactive: [17] 96 % of control | dose: 200.0 mg/kg/injection, schedule: Q04DX002 (ip), vehicle: saline 107 % of control | dose: 400.0 mg/kg/injection, schedule: Q04DX002 (ip), vehicle: saline 93 % of control

NC(N)=NCCN=C(N)N
inactive: dose: 15.0 mg/kg/injection, schedule: Q01DX Z (oral), vehicle: saline 97 % of control | dose: 30.0 mg/kg/injection, schedule: Q01DX Z (oral), vehicle: saline 103 % of control | dose: 60.0 mg/kg/injection, schedule: Q01DX Z (oral), vehicle: saline 101 % of control | dose: 120.0 mg/kg/injection, schedule: Q01DX Z (oral), vehicle: saline 95 % of control

COc1ccccc1NC(=O)Nc1cccc(C)c1C
inactive: [11] 96 % of control | [3] 93 % of control | [12] 92 % of control | [4] 93 % of control | [13] 100 % of control | [5] 92 % of control

CC1(C)N=C(SCC(=O)c2ccccc2)NC1(C)C
inactive: [1] 101 % of control | [2] 101 % of control | [17] 101 % of control

CC1C2C(=O)C3(C(C)C(=O)O)CCC2(C)C3CC12OCCO2 (configuration not stated)
inactive: dose: 100.0 mg/kg/injection, schedule: Q01DX001 (ip), vehicle: Klucel (hydroxypropylcellulose) (HPC) 95 % of control | dose: 200.0 mg/kg/injection, schedule: Q01DX001 (ip), vehicle: Klucel (hydroxypropylcellulose) (HPC) 108 % of control | dose: 400.0 mg/kg/injection, schedule: Q01DX001 (ip), vehicle: Klucel (hydroxypropylcellulose) (HPC) 97 % of control

C#CC[N+](C)(C)CC#C
inactive: [14] 102 % of control | [15] 94 % of control | [16] 93 % of control

CSc1ccc(NC(=O)Nc2cccc(C(C)=O)c2)cc1
inactive: [11] 97 % of control | [12] 94 % of control | [13] 91 % of control

N#CSCC(CCCCCCCCC(=O)O)SC#N (configuration not stated)
inactive: dose: 12.5 mg/kg/injection, schedule: Q04DX002 (ip), vehicle: saline with Tween-80 91 % of control | dose: 25.0 mg/kg/injection, schedule: Q04DX002 (ip), vehicle: saline with Tween-80 100 % of control
